Results reported in patent publication US20110066238A1, “RECONSTRUCTED CORNEA AND MUCOUS MEMBRANE” (BASF BEUTY CARE SOLUTIONS FRANCE S.A.S, priority 2008, published 2011).

Assays:
Type in all cases: cell-based
[1] = tested on: reconstructed human hemi-corneas; test: Histological study of reconstructed human hemi-corneas treated with SDS; conditions: 10 minutes, complete immersion; 0.5%, 1%, 2%, 3% SDS tested
Method: A cell suspension preferentially containing 2×10^5 corneal epithelial cells/500 μl of culture medium is seeded on the surface of the reconstructed human corneal stroma. The culture medium used is preferentially composed of DMEM/HAM F12 (2/1), 10% foetal calf serum (FCS), EGF (10 ng/ml), insulin (5 μg/ml), adenine (0.18 mM), hydrocortisone (0.4 μg/ml), cholera toxin (0.1 nM), triiodothyronine (2 nM), glutamine (4 mM), ascorbic acid (1 mM), penicillin G (100 IU/ml), gentamicin (20 μg/ml) and amphotericin B (1 μg/ml). The corneal epithelial cells are cultured by immersion for 7 days on the equivalent corneal stroma and with the medium described above.
The cultures are then raised to the air/liquid interface and then cultured for a further 14 days with a culture medium preferentially composed of DMEM, hydrocortisone (0.4 μg/ml), insulin (5 μg/ml), ascorbic acid (1 mM), penicillin G (100 IU/ml), gentamicin (20 μg/ml) and amphotericin B (1 μg/ml).
The reconstructed human hemi-corneas are treated for 10 minutes by complete immersion, with increasing solutions of SDS (0.5%, 1%, 2% and 3%). After the treatment, the reconstructed human hemi-corneas are rinsed with culture medium, for example DMEM, and then fixed, for example with formaldehyde, and then included in paraffin. […]

[2] = tested on: reconstructed human hemi-corneas; test: Cell viability (MTT) of reconstructed human hemi-corneas treated with SDS; conditions: beyond 0.5% SDS, 10 minutes immersion
[3] = tested on: IL-6; test: Secretion of IL-6 by reconstructed human hemi-corneas treated with SDS (membrane ARRAY); conditions: culture supernatant after at least 24 hours of reculture following SDS treatment; irritant effect without cell mortality
Method: (§1) After treating with SDS, the reconstructed human hemi-corneas are rinsed with culture medium, for example, DMEM, and then recultured for at least a further 24 hours in the culture medium described for the preparation of the reconstructed human hemi-corneas (Example 5).
The culture supernatants of the reconstructed human hemi-corneas are then recovered in order to assay the secreted pro-inflammatory cytokines. The culture supernatants optionally may be frozen before use.
The inventors evaluated the secretion of IL-6, for example by means of a “membrane ARRAY” method as a function of the cell viability previously studied in Example 6.

[4] = tested on: reconstructed human hemi-corneas; test: Cellular recovery of reconstructed human hemi-corneas treated with SDS, histological analysis
Method: The reconstructed human hemi-corneas are treated for 10 minutes by complete immersion, with increasing solutions of SDS (0.5%, 1%, 2% and 3%). After the treatment, the reconstructed human hemi-corneas are rinsed with culture medium, for example DMEM, and then fixed, for example with formaldehyde, and then included in paraffin. Paraffin slices are then prepared by microtome, preferentially at a thickness of 5 μm, and then stained, for example, with haematoxylin, phloxin and saffron. […] At and above 0.5% SDS, a histological effect on the reconstructed human hemi-corneas is observed.
as §1, with “treatment” for “treating”, “5). The histological studies are performed as described in Example 5.” for “5).”

[5] = tested on: reconstructed human hemi-corneas; test: Cellular recovery of reconstructed human hemi-corneas treated with SDS, cell viability
Method: After culturing for 7, 14 or 28 days, the reconstructed human corneal stromas are analysed in the following manner: • the cultures are incubated for 2 hours at 37° C. in 2 ml of MTT (methyl thiazolyl tetrazolium) at 1 mg/ml. The negative control corresponds to the biomaterial not containing keratocytes; • the cultures are then recovered, and then incubated in 4 ml of DMSO (dimethyl sulfoxide) for 4 hours with stirring; • a fraction of the culture supernatant (200 μl) of each sample is recovered and then analysed by spectrophotocolorimetry (550 nm). The optical density read is directly proportional to the number of living cells. The biomaterial that has a porosity of between 40 and 50 μm is suitable for the proliferation of keratocytes. Indeed, the cellular proliferation kinetics of the keratocytes is proportional to the culturing time of the reconstructed human corneal stromas. Furthermore, irrespective of the conditions of manufacture of our biomaterial [1.6%, 1.4% and 1.25% dry matter], as described in Example 2, the keratocytes have a similar degree of proliferation.
After treatment with SDS, the reconstructed human hemi-corneas are rinsed with culture medium, for example, DMEM, and then recultured for at least a further 24 hours in the culture medium described for the preparation of the reconstructed human hemi-corneas (Example 5). […]

## CCCCCCCCCCCCOS(=O)(=O)[O-].[Na+] [SDS, sodium dodecyl sulfate]
[1]
  SDS concentration at which a histological effect is observed: ≥ 0.5%
[2]
  cell viability: less than 75%
[3]
  secretion of IL-6: strong secretion of IL-6
[4]; 0.5% and 1% SDS, after 48 hours of cellular recovery
  epithelial organization after cellular recovery (histology): epithelial organization close to that of untreated hemi-corneas
[4]; 2% and 3% SDS, after recovery
  epithelial organization after cellular recovery (histology): irreversible epithelial damage
[5]; 0.5% SDS
  cell viability after recovery (T=48 h) versus after treatment (T=0 h): significantly equivalent
[5]; 1%, 2% and 3% SDS
  cell viability after recovery (T=48 h) versus after treatment (T=0 h): significantly lower cell viability
